Data from ChEMBL document CHEMBL1201862, “PubChem BioAssay data set” (2004).
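Growth conditions: 96-well plates. Treatment: test compound, 48 hours, 5 concentrations. Analysis: linear interpolation between bracketing concentrations; unreached endpoints set to highest concentration. Here, GI50 denotes the concentration required for 50% inhibition of growth.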 Active and inactive are the calls of the source. Cut-off read from the data, not from the text of the source: active = GI50 up to about 1.1 µM and inactive = higher.

Legend:
Test in all cases: growth of human tumour cells (NCI), 48 h
[1] = tested on: 786-0
[2] = tested on: A498
[3] = tested on: A549
[4] = tested on: ACHN
[5] = tested on: CAKI-1
[6] = tested on: CCRF-CEM
[7] = tested on: COLO 205
[8] = tested on: DLD-1
[9] = tested on: DMS-114
[10] = tested on: DMS-273
[11] = tested on: EKVX
[12] = tested on: HCC 2998
[13] = tested on: HCT-116
[14] = tested on: HCT-15
[15] = tested on: HL-60
[16] = tested on: HOP-18
[17] = tested on: HOP-62
[18] = tested on: HOP-92
[19] = tested on: HT-29
[20] = tested on: IGROV-1
[21] = tested on: K562
[22] = tested on: KM-20L2
[23] = tested on: KM12
[24] = tested on: LOX IMVI
[25] = tested on: LXFL 529
[26] = tested on: M14
[27] = tested on: M19-MEL
[28] = tested on: MOLT-4
[29] = tested on: Malme-3M
[30] = tested on: NCI-H23
[31] = tested on: NCI-H460
[32] = tested on: NCI-H522
[33] = tested on: OVCAR-3
[34] = tested on: OVCAR-4
[35] = tested on: OVCAR-5
[36] = tested on: OVCAR-8
[37] = tested on: RPMI-8226
[38] = tested on: RXF 393
[39] = tested on: SF-268
[40] = tested on: SF-295
[41] = tested on: SF-539
[42] = tested on: SK-MEL-28
[43] = tested on: SK-MEL-2
[44] = tested on: SK-MEL-5
[45] = tested on: SK-OV-3
[46] = tested on: SN12C
[47] = tested on: SNB-19
[48] = tested on: SNB-75
[49] = tested on: SNB-78
[50] = tested on: SR
[51] = tested on: SW-620
[52] = tested on: TK-10
[53] = tested on: U-251
[54] = tested on: UACC-257
[55] = tested on: UACC-62
[56] = tested on: UO-31
[57] = tested on: NCI-H226
[58] = tested on: XF498

Measured: GI50

COCN(C)c1nc(N(C)C)nc(N(C)C)n1
inactive: [1] > 100 µM | [2] > 100 µM | [3] > 100 µM | [4] > 100 µM | [5] > 100 µM | [6] > 100 µM | [7] > 100 µM | [8] > 100 µM | [9] > 100 µM | [10] > 100 µM | [11] > 100 µM | [12] > 100 µM | [13] > 100 µM | [15] > 100 µM | [16] 89.3 µM | [17] > 100 µM | [18] > 100 µM | [19] > 100 µM | [20] > 100 µM | [21] > 100 µM | [22] > 100 µM | [23] > 100 µM | [24] > 100 µM | [25] 81.5 µM | [26] > 100 µM | [27] > 100 µM | [28] > 100 µM | [29] > 100 µM | [30] > 100 µM | [31] > 100 µM | [32] 9.06 µM | [33] > 100 µM | [34] > 100 µM | [35] > 100 µM | [36] > 100 µM | [37] > 100 µM | [38] 40.3 µM | [39] > 100 µM | [40] > 100 µM | [41] > 100 µM | [42] > 100 µM | [43] > 100 µM | [44] > 100 µM | [45] > 100 µM | [46] > 100 µM | [47] > 100 µM | [48] > 100 µM | [49] > 100 µM | [50] > 100 µM | [51] > 100 µM | [52] > 100 µM | [53] > 100 µM | [54] > 100 µM | [55] > 100 µM | [56] > 100 µM
> 100 µM: [14]

O=C1Nc2ccccc2Nc2nc3cccccc-3c21
> 100 µM: [14]
inactive: [1] > 100 µM | [3] > 100 µM | [4] > 100 µM | [5] > 100 µM | [6] > 100 µM | [7] > 100 µM | [8] > 100 µM | [9] > 100 µM | [10] > 100 µM | [11] > 100 µM | [12] > 100 µM | [13] > 100 µM | [15] > 100 µM | [17] > 100 µM | [18] > 100 µM | [19] > 100 µM | [20] > 100 µM | [21] > 100 µM | [22] > 100 µM | [23] > 100 µM | [24] > 100 µM | [25] > 100 µM | [26] > 100 µM | [27] > 100 µM | [29] > 100 µM | [57] > 100 µM | [30] > 100 µM | [31] > 100 µM | [32] > 100 µM | [33] > 100 µM | [34] > 100 µM | [35] > 100 µM | [36] > 100 µM | [37] > 100 µM | [38] > 100 µM | [39] > 100 µM | [40] > 100 µM | [41] > 100 µM | [42] > 100 µM | [43] > 100 µM | [44] > 100 µM | [45] > 100 µM | [46] > 100 µM | [47] > 100 µM | [48] > 100 µM | [49] > 100 µM | [50] > 100 µM | [51] > 100 µM | [52] > 100 µM | [53] > 100 µM | [55] > 100 µM | [56] > 100 µM | [58] > 100 µM

CCOC(=O)CC1(c2cccc3ccccc23)OC(=O)c2ccccc21 (configuration not stated)
inactive: [2] 23.6 µM | [3] 41 µM | [4] 30.3 µM | [5] 57.7 µM | [6] 43.1 µM | [7] 30.4 µM | [8] 8.69 µM | [9] 30.6 µM | [10] 41.7 µM | [11] 63.2 µM | [12] 62.5 µM | [15] 22.1 µM | [16] 40.4 µM | [19] 49.8 µM | [20] > 100 µM | [21] 37.9 µM | [22] 45 µM | [23] 40.5 µM | [24] 60.4 µM | [25] 51.2 µM | [27] 48.5 µM | [28] 25.4 µM | [29] 27.5 µM | [57] 67 µM | [30] 20.3 µM | [31] 37.6 µM | [32] 24.1 µM | [33] 33.6 µM | [34] 40.4 µM | [35] > 100 µM | [36] 45.5 µM | [37] 23.7 µM | [38] 16.3 µM | [39] 32.7 µM | [40] 34.4 µM | [42] 39.9 µM | [43] 32.1 µM | [44] 21.3 µM | [45] > 100 µM | [46] 43.1 µM | [47] 50.9 µM | [48] 14 µM | [49] 66.4 µM | [51] 79.4 µM | [52] 80 µM | [53] 68.4 µM | [54] 56.4 µM | [55] 57.7 µM | [56] 23.9 µM
35.5 µM: [14]

Cc1ccc(NC(=O)CC(=O)N2N=C(N(CCC#N)c3cccc(C)c3)CC2c2ccccc2)cc1 (configuration not stated)
inactive: [1] > 100 µM | [3] > 100 µM | [4] > 100 µM | [6] > 100 µM | [7] > 100 µM | [8] > 100 µM | [9] > 100 µM | [10] > 100 µM | [11] 5.97 µM | [12] > 100 µM | [13] > 100 µM | [15] > 100 µM | [16] > 100 µM | [17] > 100 µM | [18] > 100 µM | [19] > 100 µM | [20] > 100 µM | [21] > 100 µM | [22] > 100 µM | [23] > 100 µM | [25] > 100 µM | [26] > 100 µM | [27] > 100 µM | [28] > 100 µM | [29] > 100 µM | [57] > 100 µM | [30] > 100 µM | [31] > 100 µM | [32] > 100 µM | [33] > 100 µM | [34] > 100 µM | [35] > 100 µM | [36] > 100 µM | [37] > 100 µM | [38] > 100 µM | [39] > 100 µM | [40] > 100 µM | [41] > 100 µM | [42] > 100 µM | [43] > 100 µM | [44] > 100 µM | [45] > 100 µM | [46] > 100 µM | [47] > 100 µM | [48] > 100 µM | [49] > 100 µM | [50] > 100 µM | [51] > 100 µM | [53] > 100 µM | [54] > 100 µM | [55] > 100 µM | [56] > 100 µM
> 100 µM: [14]

CC(C)C(Sc1nc(-c2ccccc2)c(-c2ccccc2)[nH]1)C(=O)N/N=C/c1ccc([N+](=O)[O-])cc1 (configuration not stated)
12.5 µM: [14]
inactive: [1] 14.3 µM | [2] 20.5 µM | [3] 27.3 µM | [4] 15.6 µM | [5] 21.1 µM | [6] 4.05 µM | [7] 11.3 µM | [8] 30.8 µM | [9] 25.9 µM | [10] 12 µM | [11] 20.4 µM | [13] 14.5 µM | [15] 13.6 µM | [17] 20.8 µM | [18] 10.4 µM | [19] 6.44 µM | [20] 18.2 µM | [22] 15.1 µM | [23] 10.9 µM | [24] 11.6 µM | [25] 9.98 µM | [26] 7.33 µM | [27] 11.6 µM | [28] 1.93 µM | [29] 13.9 µM | [57] 17.9 µM | [30] 16.7 µM | [31] 9.46 µM | [32] 15.3 µM | [33] 7.19 µM | [34] 16 µM | [35] 20.1 µM | [36] 29.1 µM | [37] 11.5 µM | [39] 18.5 µM | [40] 15.8 µM | [41] 20.5 µM | [42] 15.5 µM | [43] 12.5 µM | [44] 9.23 µM | [45] 22.8 µM | [46] 12.5 µM | [47] 17.3 µM | [48] 18.8 µM | [49] 24.8 µM | [50] 1.12 µM | [51] 14.3 µM | [52] 30.1 µM | [53] 14.6 µM | [54] 12.1 µM | [55] 15.6 µM | [56] 11.3 µM | [58] 16.2 µM
